Entries after “also recorded” stand apart in the source; their conditions may differ. Peptide text beside a SMILES is read from it. * marks the point of attachment. Cbz = O=C(OCc1ccccc1)*

Results on two compounds are retold here after patent US20130085178A1, “COMPOSITION FOR TREATING BONE DISEASE COMPRISING A GLYCEOLLIN AS AN ACTIVE INGREDIENT” (KYUNGPOOK NATIONAL UNIVERSITY INDUSTRY-ACADEMIC COOPERATION …, priority 2010, published 2013).

Experiment [1] relates to Runx2. Kind of experiment: Runx2 protein and mRNA level in MC3T3E1 cells during induction of differentiation. The class given is cell-based, mouse. On the procedure:
(§1) Osteoblasts isolated from calvarial of 18.5 days old mice and mouse MC3T3E1 cells were cultured in alpha-MEM containing 10% FBS at 37° C. in a humidified atmosphere containing 5% CO2. To induce differentiation of osteoblasts and MC3T3E1 cells, 50 μg/ml of ascorbic acid and 10 mM of beta-glycerophosphate are added to alpha-MEM containing 10% FBS. RAW264.7 (murine monocyte/macrophage) cells were cultured in D-MEM containing 10% FBS, and RANKL is added to alpha-MEM containing 10% FBS to induce differentiation to osteoclasts.
(§2) MC3T3E1 cells were treated with 0, 5, 10, 25 and 50 μM of glyceollin during induction of cellular differentiation. RAW264.7 cells were treated with 0, 5, 10 and 25 μM of glyceollin during induction of cellular differentiation. Osteoblasts isolated from mouse calvarial were treated with 0, 10 and 20 μM of glyceollin during induction of cellular differentiation. Osteoporosis mice induced by high dose vitamin D were daily injected 0, 0.5 and 5 μg/kg of glyceollin for 9 days.
(§3) To investigate the function of glyceollin on osteoblasts proliferation, morphology and number of glyceollin-treated MC3T3E1 cells were analyzed and MTT analysis was carried out.
To investigate whether the decrease of Runx2 protein is due to decrease of Runx2 mRNA, mRNA expression patterns were measured after treatment of glyceollin.
The Runx2 protein level decreased by glyceollin was recovered by MG132 (FIG. 1f).

For experiment [2], the system named is osteoporosis mouse model. Kind of experiment: Osteoporosis mouse model induced by high dose vitamin D (micro CT, Trichrome staining, TRAP staining of calvarial). The class given is in vivo, mice (C57BL/6). On the procedure:
Normal mice (C57BL/6) were subcutaneously injected with high dose vitamin D (60×10^4 IU/kg) to obtain osteoporosis mouse model, and monitored during 10 days after first injection. High dose vitamin D activates osteoclasts to reduce mouse bone mass.
as §2
To elucidate in vivo inhibitory effect of glyceollin on differentiation of osteoclasts which had been confirmed in vitro, osteoporosis mouse model injected with high dose vitamin D one time a day for 3 days. The mice treated with glyceollins one time a day for 9 days were sacrificed at 10 days after first injection and calvarial was observed by micro CT analysis, Trichrome staining and TRAP staining.

The test system of experiment [3] is RAW264.7 cells. Briefly: Differentiation of RAW264.7 cells to osteoclasts by TRAP staining. It counts as cell-based, murine. The conditions noted are these: RANKL-induced, 0, 5, 10 and 25 μM glyceollin, TRAP stained 4 days after. On the procedure: as §1, §2
RAW264.7 cells were treated with 0, 5, 10 and 25 μM of glyceollin during induction of differentiation, and then TRAP stained 4 days after to analyze osteoclasts.

The subject of experiment [4] is osteoblasts isolated from mouse calvarial. Kind of experiment: Osteoblast differentiation by ALP staining, Alizarin Red staining and calcium contents. It counts as cell-based. The conditions noted are these: 0, 10 and 20 μM glyceollin. The protocol: as §1, §2
Osteoblasts isolated from mouse calvarial were treated with 0, 10 and 20 μM of glyceollin during induction of cellular differentiation, and differentiation was analyzed by ALP staining (7 days after differentiation) and Alizarin Red staining (21 days after differentiation).
In addition, calcium contents of osteoblasts (21 days after differentiation) were measured and reduction of calcium was observed as glyceollin concentration increased (FIG. 3c).

Experiment [5] has as its system MC3T3E1 cells. Kind of experiment: Osteoblast proliferation: morphology, cell number and MTT analysis of glyceollin-treated MC3T3E1 cells. It counts as cell-based, mouse. The settings on record: vs untreated cells. On the procedure:
as §1, §3

The subject of experiment [6] is osteoblasts isolated from mouse calvarial. Kind of experiment: Proteins and mRNAs related to osteoblast differentiation (Runx2, osteocalcin, Rankl, Opg) in osteoblasts isolated from mouse calvarial. It counts as cell-based. The protocol:
as §1, §2
Proteins and mRNAs related to osteoblast differentiation were measured in osteoblasts isolated from mouse calvarial which were treated with 0, 10 and 20 μM of glyceollin.
Consequently, Rankl/Opg ratio was decreased by glyceollins in osteoblast differentiation (FIG. 2c).

[7] abbreviates: calvarial micro CT, 0, 0.5 and 5 μg/kg glyceollin daily for 9 days, sacrificed at 10 days.
[8] abbreviates: calvarial, osteoporosis mouse model by high dose vitamin D.
Setting [9] is: 10 and 20 μM glyceollin during cellular proliferation.
Setting [10] is: mouse calvarial osteoblasts, 0, 10 and 20 μM glyceollin.
[11] abbreviates: mouse calvarial osteoblasts, real-time PCR, 0, 10 and 20 μM glyceollin, listed as glyceollins.

For the compound glyceollin, the Runx2 protein level entry in experiment [1] (MC3T3E1 cells, 0, 5, 10, 25 and 50 μM glyceollin during induction of differentiation) is recorded as “decreased as the concentration of glyceollin increased”. For the same compound, the “Runx2 mRNA level” value in experiment [1] (MC3T3E1 cells, 10 and 20 μM glyceollin during induction of differentiation) is “not changed; also recorded: not affected”. For the same compound, the “osteoporosis of mouse calvarial mediated by high dose vitamin D (BMC, BMD and TMD analysis after CT)” value in experiment [2] (administration of glyceollin) was “recovered”. Further, in experiment [2] (setting [7]), the “bone mineral contents (BMC)” value is on record as “increased by glyceollin in dose-dependent manner”, the “bone mineral density (BMD)” value is given as “increased by glyceollin in dose-dependent manner” and the “tissue mineral contents (TMC)” value was “increased by glyceollin in dose-dependent manner”. Besides, in experiment [2] (setting [8]), the “collagen generation (Trichrome staining)” value is listed as “increased” and the “number of osteoclasts (TRAP staining)” value is on record as “decrease”. The “differentiation to osteoclasts (TRAP stained osteoclasts)” value in experiment [3] is listed as “inhibited as the concentration of glyceollin increased; also recorded: reduced by glyceollin in dose-dependent manner”. Further, the “differentiation of osteoblast by ALP staining” value in experiment [4] (7 days after differentiation) is recorded as “inhibited by glyceollin in dose-dependent manner”. Moreover, in experiment [4] (21 days after differentiation), the “calcium contents of osteoblasts” value is “decreased as the concentration of glyceollin increased; also recorded: reduction” and the “differentiation of osteoblast by Alizarin Red staining” value is “inhibited according to the concentration of glyceollin; also recorded: inhibited by glyceollin in dose-dependent manner”. Moreover, in experiment [5] (20 μM glyceollin during cellular proliferation), the “morphology of MC3T3E1 cells” value is listed as “similar; also recorded: no significant difference”. In experiment [5] (setting [9]), the “MTT assay for MC3T3-E1 cells” value is reported as “similar; also recorded: no significant difference” and the “number of MC3T3E1 cells” value is “similar; also recorded: no significant difference”. Further, in experiment [6] (setting [10]), the “Runx2 mRNA level” value is on record as “not changed; also recorded: not affected” and the “osteocalcin mRNA level (differentiation marker of osteoblasts)” value is “decreased according to the concentration of glyceollin; also recorded: Dose-dependent reduction”. Also, the Runx2 protein level result in experiment [6] (mouse calvarial osteoblasts, 0, 10 and 20 μM glyceollin, D21) is reported as “decreased by glyceollin in dose-dependent manner”. The Rankl/Opg ratio result in experiment [6] (mouse calvarial osteoblasts, osteoblast differentiation) is recorded as “decreased”. Besides, the “Rankl mRNA level” value in experiment [6] (mouse calvarial osteoblasts, real-time PCR, 0, 10 and 20 μM glyceollin) is reported as “decreased according to the concentration of glyceollin”. In experiment [6] (setting [11]), the “Opg mRNA level” value is “not affected or slightly increased” and the “Rankl mRNA level” value is on record as “down-regulated”.
For the compound `CC(C)C[C@@H](C=O)NC(=O)[C@H](CC(C)C)NC(=O)[C@H](CC(C)C)NC(=O)OCc1ccccc1` [MG132, reference compound] (Cbz-Leu-Leu-Leu-aldehyde), the “Runx2 protein level decreased by glyceollin, after further treatment with proteasome inhibitor” value in experiment [1] (MC3T3E1 cells, 20 μM glyceollin plus MG132 vs 20 μM glyceollin only) was “recovered”.
